Measurements as given in a melting point compilation (Tetko et al.; mined from patent text by program, amines drawn as free bases though some values may be those of a salt).

For `COc1cccc2c1C(CN1CC=C(c3c[nH]c4cc(Cl)ccc34)CC1)CC2` (stereo unspecified), the melting point was 177 to 178 °C. `C=C1N(CCC)C(=O)OC12CCN(Cc1ccccc1)CC2` gave a melting point of 70 to 71 °C. `COC(=O)Cn1c(=O)[nH]c(=O)n(-c2cc(Oc3ccc(C(F)(F)F)c(Cl)c3)ccc2[N+](=O)[O-])c1=O` gave a melting point of 166 to 167 °C. `COc1ccc2[nH]c(=O)[nH]c(=O)c2c1OC` gave a melting point of 266 to 268 °C. Compound `CNc1ccc(CN2C(=O)C(C)(c3ccccc3Cl)c3cc(Cl)ccc32)c(OC)c1` (stereo unspecified) has a melting point of 226 °C. Work on `N#CC(c1ccc(Cl)cc1)c1ccc(-n2ncc(=O)[nH]c2=O)cc1` (stereo unspecified) yielded a melting point of 206 °C. `CCOCc1nc2c(N)nc3ccccc3c2n1CCN1C(C)=NOC1(C)C` gave a melting point of 204 to 205 °C. `CN(C)CCCCCCCCCOc1ccc2oc(-c3ccccc3)cc(=O)c2c1` showed a melting point of 52 to 53 °C. Work on `Cc1c(NC(=O)c2ccc(-c3ccc(F)cc3)cc2)ccc2cc(C(C)O)cnc12` (stereo unspecified) yielded a melting point of 189 to 192 °C. `CCOC(=O)C1=C(C)NC(COC(=O)COc2ccc(Cl)cc2)=C(C(=O)OCC)C1c1ccccc1[N+](=O)[O-]` (stereo unspecified) gave a melting point of 86 to 88 °C. Compound `OC1CSC(Oc2cccnc2-c2cncnc2)C(O)C1O` (stereo unspecified) has a melting point of 195 °C. In the case of `CCN1C(=O)C(C)(C)C(=O)N(C)c2cc(CN(CCn3ccc4occc4c3=O)Cc3cccnc3COC)ccc21`, the melting point is reported as 123 to 125 °C. With `O=C1C=C(O)C(=O)c2cc(F)ccc21` the melting point was 206 to 210 °C. In the case of `Cc1cc(NC(=O)C2CSc3sccc3C2=O)no1` (stereo unspecified), the melting point is reported as 143 to 146 °C. Compound `COC(=O)COc1ccc(N)cc1` has a melting point of 65 to 66.8 °C. With `CCOCOc1ccc(-c2ccc(C(F)(F)F)cc2)cc1Sc1cc(-c2ccc(C(F)(F)F)cc2)ccc1OCOCC` the melting point was 61 to 62 °C. Work on `CCOC(=O)c1c(CN(CC)CC)nc2sc3c(c2c1-c1ccc(OC)c(OC)c1)CCN(C(C)=O)C3` yielded a melting point of 72 to 75 °C. `COc1c[nH]c(=O)c([N+](=O)[O-])c1` showed a melting point of 179 °C. In the case of `Cc1cccc2sc(COc3ccc(F)c(C(N)=O)c3F)nc12`, the melting point is reported as 201 to 202 °C. `CC1CC(C(=O)O)NC1=O` (stereo unspecified) gave a melting point of 169 to 170 °C. Work on `CCNC(=O)c1c([Si](C)(C)C)ccc(C(=O)OC)c1Cl` yielded a melting point of 103 to 104 °C. With `CCCC(=O)NCCc1ccc(S(=O)(=O)N2CCN(C3CCCCC3)C2=N)s1` the melting point was 121 to 125 °C. For `CCc1noc2cc(-c3ccccc3)n(C)c(=O)c12`, the melting point was 167 to 169 °C. Compound `CCCOc1cc2sc(C(=O)O)cc2cc1OCC` has a melting point of 192 to 194 °C. Compound `CC(C)(C)OC(=O)NCC(O)c1cccs1` (stereo unspecified) has a melting point of 101 to 102 °C. `CN(c1cccc2cc(C3=NCC(CC(N)=O)S3)[nH]c12)S(=O)(=O)c1cccs1` (stereo unspecified) gave a melting point of 193 to 194 °C. `Cc1cccc(NC(=O)C=Cc2cn(C)nc2[N+](=O)[O-])n1` showed a melting point of 191 to 193 °C. `CC1CCCC=C1c1ccc(C(=O)N2Cc3cccn3Cc3ccccc32)cc1` (stereo unspecified) showed a melting point of 108 to 109 °C. For `O=C(CCCN1CCOCC1)c1ccc2c(c1)Cc1cc(C(=O)CCCN3CCOCC3)ccc1S2`, the melting point was 90.5 to 91.5 °C. Work on `CC(=O)Oc1cc(C)c(C)c(C)c1C1(OC(C)=O)C(=O)c2ccccc2C1=O` yielded a melting point of 238 to 242 °C. For `Nc1ccc(N2CCN(Cc3ccccc3)CC2)cc1`, the melting point was 137 to 138 °C. Work on `Clc1ccc2nc(Cl)nnc2c1` yielded a melting point of 113 to 115 °C. For `CCOC(=O)c1ccc(-c2cccc(O)c2)cc1`, the melting point was 76 °C. For `CCOC(=O)c1c(Cl)nc2ccc(OC)cc2c1CCl`, the melting point was 215 to 219 °C. For `CCCn1c(=O)c2[nH]c(/C=C/c3ccc(OC)c4ccccc34)nc2n(CCC)c1=O`, the melting point was > 280 °C. With `COc1ccc(CN2C(=O)CN(Cc3ccc(C(=O)O)cc3)S2(=O)=O)c(OC)c1` the melting point was 175 to 177 °C. With `CCc1nc2c(N)nc3cc(-c4ccncc4)ccc3c2n1CC(C)(C)O` the melting point was > 250 °C. Compound `O=C(c1cc(Br)ccc1[N+](=O)[O-])C(Br)C(Br)c1cccc(Br)c1` (stereo unspecified) has a melting point of 153 to 155 °C. Compound `CC(C)Cn1nccc1-c1nn(-c2cccc(C(F)(F)F)c2)ccc1=O` has a melting point of 120 to 121 °C. `O=C(O)CN1C(=O)C(=C2CCCCC2)SC1=S` gave a melting point of 196 to 201 °C. With `CCOC(=O)c1c(C)cc2cnc(-c3ccccc3F)nc2c1C` the melting point was 98 to 100 °C. `COc1cc(C#N)ccc1C(Br)C(Br)C(=O)c1cccc(C#N)c1` (stereo unspecified) showed a melting point of 72 to 75 °C. With `CN1C(=O)C2=C(c3ccc(Br)cc3)N(c3ccccc3)C(=O)C2=C1c1ccccc1` the melting point was 255 to 256 °C. Work on `O=C(Nc1ccc(Cl)cc1)Oc1ccc2c(c1)N(Cc1ccccc1)CCC2` yielded a melting point of 120 °C. `Cc1ccc(C(=O)N2CCc3nnc(NN)cc3C2)cc1` showed a melting point of 207 to 210 °C. `Cc1cc(C)c2c(c1)C=C(/C=C/C=C/C=C/C(=O)O)CO2` showed a melting point of 208 to 210 °C. Work on `COc1ccc(-c2ccccc2-c2ccc(S(N)(=O)=O)cc2)cc1Cl` yielded a melting point of 180 °C. In the case of `CC1(c2ccccc2)C(=O)Nc2cc(Cl)ccc2C1=O` (stereo unspecified), the melting point is reported as 174 to 175 °C. `CCN(CC)CCNc1ccc(CO)c2sc3ccc(OC)cc3c(=O)c12` gave a melting point of 103 to 105 °C. For `Cc1cc(-c2nc3ccccc3c(=O)n2-c2ccc(Cl)cc2)cc(C)c1OCCO`, the melting point was 101 to 103 °C. For `OC(CNC1CC1)COc1ccc(-c2nccs2)cc1` (stereo unspecified), the melting point was 100 to 102 °C. `COC(=O)CC[C@@H](CF)NC(=O)c1ccccc1` gave a melting point of 99.5 to 100 °C. Compound `CC(C)CCCSC1c2ccccc2C(=O)N1c1ccc2ccc(Cl)nc2n1` (stereo unspecified) has a melting point of 141 °C. With `O=C(NCc1ccccn1)OC1Cc2ccccc2N(S(=O)(=O)c2ccc(Cl)cc2)C1` (stereo unspecified) the melting point was 106 to 110 °C. `C=Cc1ccc(CNc2ccc(Nc3ccccc3)cc2)cc1` gave a melting point of 143 °C. For `CC(C)(C)Cc1c(CC(C)(C)C(=O)O)n(Cc2ccc(Cl)cc2)c2ccc(OCc3ccc4scc(Cl)c4n3)cc12`, the melting point was 185 to 186 °C. In the case of `CCCNC(=O)c1cncs1`, the melting point is reported as 86 °C. Compound `COc1ccc(C(=O)NC(=O)NC2CN3CCC2CC3)cc1` (stereo unspecified) has a melting point of 166 to 168 °C. For `COC(=O)c1cccc([N+](=O)[O-])c1CS(=O)(=O)NC(=O)Nc1nc(OC)cc(OC)n1`, the melting point was 177 to 181 °C. `CCNc1cc(Oc2cccc(C(F)(F)F)c2)nc(C(=O)NN=CC(F)(F)C(F)(F)F)c1` showed a melting point of 101 to 102 °C. Work on `COC(=O)c1nc2cccc(Cl)c2c(O)c1C(=O)OC` yielded a melting point of 174 to 176 °C. For `O=c1ccc(Oc2ccccc2)n[nH]1`, the melting point was 148 °C. `COC(=O)C(CO)NS(=O)(=O)c1ccc(Oc2ccncc2)cc1` (stereo unspecified) showed a melting point of 137 to 139 °C. For `CC(=O)Nc1cccc2c(-c3ccc(=O)n(C(C)C)n3)c(-c3ccccc3)nn12`, the melting point was 92 to 96 °C. For `c1cncc(OCCCCCCOc2cccnc2)c1`, the melting point was 85 °C. For `CCCCNS(=O)(=O)c1ccc2[nH]c(=O)c(=O)[nH]c2c1`, the melting point was 257 to 262 °C. For `C#Cc1ccnc(-c2cc(N)c(C#Cc3ccc(C(C)=S)cc3)cc2[N+](=O)[O-])c1`, the melting point was 185 to 188 °C. Compound `NCC(=O)N(N)c1ccc2ccccc2c1` has a melting point of 147 to 148 °C. Work on `O=C(O)C1=Cc2cc(Cl)c(Sc3ccc(Cl)cc3)cc2OC1C(F)(F)F` (stereo unspecified) yielded a melting point of 252 to 253 °C. `COc1ccc2cc([C@H](C)C(=O)OCCNC(=O)OC(C)(C)C)ccc2c1` gave a melting point of 82 to 84 °C. Work on `CCOC(=O)c1c(C)nn(-c2cccc(C)c2)c1C` yielded a melting point of 46.5 to 47.5 °C. In the case of `CCOC(=O)Cc1c(C)n(Cc2ccccc2)c2ccc(-c3ccccc3)cc12`, the melting point is reported as 116 to 119 °C. Compound `OC12CC3CC(O)(C1)CC(O)(C3)C2` has a melting point of 217 °C. With `Cn1ncnc1COc1nn2c(-c3ccccc3F)nncc2c1-c1ccccn1` the melting point was 186 to 187 °C. In the case of `O=C(O)C1CCC(c2cc3cccnc3c(=O)[nH]2)CC1` (stereo unspecified), the melting point is reported as > 270 °C. `CC1CN(C)CC(NC(=O)c2n[nH]c3ccccc23)CN1Cc1ccccc1` (stereo unspecified) gave a melting point of 164 to 165 °C. `COc1cc(C(=O)CCl)ccc1O` showed a melting point of 102 to 103 °C. For `C=CCNc1c(F)cc2c(=O)c(C(=O)O)cn(-c3nc(N)c(F)cc3F)c2c1Cl`, the melting point was 205 to 208 °C. With `C(/CN1CCOCC1)=C1/CCCc2c1cnn2-c1ccccc1` the melting point was 114 to 116 °C. Compound `CC(=O)CCc1ccc(C(N)=O)cc1` has a melting point of 152 to 154 °C. Work on `CCOC1CCC2(CC1)NC(=O)C(c1cc(Br)ccc1C)=C2O` (stereo unspecified) yielded a melting point of 138 °C. `CCCCc1ccc(CCc2cc3c(s2)-n2c(C)nnc2CN=C3c2ccccc2Cl)cc1` gave a melting point of 119 to 121 °C. Compound `CN(C)C=NC1CCN(Cc2ccccc2)CC1` has a melting point of 61 to 65 °C. With `O=C(Nc1ccccc1C(=O)NCCc1ncc[nH]1)c1ccc(-c2ccccc2)cc1` the melting point was 197 to 201 °C. In the case of `CC(=O)NC(Cc1ccc(CC(=O)OC(C)(C)C)cc1)C(=O)OCc1ccccc1` (stereo unspecified), the melting point is reported as 170 to 172 °C. In the case of `CC(=O)OCC1OC(CCOS(C)(=O)=S)C(OC(C)=O)C(OC(C)=O)C1OC(C)=O` (stereo unspecified), the melting point is reported as 115 to 116 °C. Work on `O=C1CC(c2ccccc2)C(c2ccccc2)=NN1` (stereo unspecified) yielded a melting point of 221 to 223 °C. Compound `COc1ccc(Cn2nc(COC(C)(C)C(=O)O)c3ccccc32)cc1` has a melting point of 169 to 171 °C. In the case of `COc1ccc(C(=O)Cc2c(Cl)cncc2Cl)c2c(CC(=O)NCc3ccccc3)coc12`, the melting point is reported as 244 to 246 °C. For `Cc1c(CNS(=O)(=O)c2ccc(C(F)(F)F)cc2)nn(-c2ccc(Cl)cc2Cl)c1-c1ccc(Br)cc1`, the melting point was 195 °C. With `COc1ccc(C#N)c(O)c1` the melting point was 169 to 171 °C. For `COC(=O)Oc1ccc(N=C(C#N)c2ccccc2)cc1`, the melting point was 145 to 146 °C. Compound `O=C1CCCC(=O)C1C(=O)c1ccc(Cl)cc1Cl` has a melting point of 138 to 140 °C. Work on `CC(C)(C)OC(=O)Nc1cc(CC#N)c(I)cc1[N+](=O)[O-]` yielded a melting point of 124 to 126 °C. Work on `CCOP(=O)(/C=C/c1cn(-c2ccccc2)nc1OCc1ccc(OCc2nc(N3CCOCC3)sc2C)c(OC)c1)OCC` yielded a melting point of 88 to 90 °C. For `CC(CC(C)(C)OOC(=O)NC1CCCCC1)OC(=O)NC1CCCCC1` (stereo unspecified), the melting point was 224 to 226 °C. With `CC(C)(C)OC(=O)CNC(=O)CC(C1CCCCC1)C1CCCCC1` the melting point was 72 to 74 °C. `CCCCCCCCCCCCCCCCCC[PH](=O)C(OCC)OCC` (stereo unspecified) showed a melting point of 54 to 58 °C. In the case of `O=C(O)c1sc(Cl)nc1-c1ccccc1`, the melting point is reported as 170 to 171 °C. `COC(=O)c1ccc(NC2CC2)c(S(N)(=O)=O)c1` gave a melting point of 158 to 161 °C. In the case of `CN1C2CCCC1CC(NC(=O)c1cccc3nc(-c4ccc(F)cc4)oc13)C2` (stereo unspecified), the melting point is reported as 229 to 231 °C.
